row,Structure (SMILES),melting point [°C]
1,C/C(=C(\C#N)C(N)=S)N1CCC(Cc2ccccc2)CC1,151 to 154
2,CC(C)c1nc2c(c3c1[nH]c1ccccc13)C(=O)CC(C)(C)C2,176 to 178
3,COc1cccc2c1CC(N(CCCc1cn(C)c3ccc(F)cc13)CC1CC1)CO2 (stereo not given),86
4,Clc1nc(Cl)nc(NC2CC2)n1,99 to 101
5,Oc1cc(C(O)(c2ccccc2)c2ccccc2)c2ccccc2n1,> 350
6,CCOC(=O)c1cc(S(=O)(=O)N2CCN(CC)CC2)cnc1OCC,66 to 68
7,COc1ccnc(CSc2nc3cc4c(cc3[nH]2)OC(F)(F)O4)c1,151 to 152
8,COC(=O)C1Cc2sc3c(c2C1)C(c1ccccc1Cl)=NCC(=O)N3 (stereo not given),178 to 181
9,COCc1cccc(OCCc2cnc(SC)[nH]c2=O)c1,129 to 131
10,Cc1nc2nccc(-c3cccs3)n2n1,184 to 185
11,CONC(=O)Nc1ccc(-c2sc3c(c2CN(C)C(C)c2ccccc2)c(=O)n(-c2ccccn2)c(=O)n3Cc2c(F)cccc2F)cc1 (stereo not given),168 to 170
12,COc1cc(Nc2nccc(-c3ccc(NCCC4CCCN4C)nc3)n2)cc(OC)c1OC (stereo not given),176 to 177
13,COc1ccc2c(cc(CCC(=O)O)n2S(=O)(=O)c2ccccc2)n1,136 to 139
14,COc1ccc(-c2noc3c2C(c2ccc(OC)c(O)c2)C2=C(COC2=O)N3)cc1 (stereo not given),219 to 221
15,CS(=O)(=O)Nc1ccc(N2CCN(Cc3ccc(-c4ccccc4)o3)CC2)cc1,178
16,O=C(O)CCCCC(=O)NCCc1ccccc1,110 to 111
17,COc1ccc(/C=C/c2nc3c([nH]2)c(=O)n(C)c(=O)n3C)c(OC)c1C,> 280
18,CCCCOCCOc1ccc(-c2ccc(N3CCC(CC(=O)OCC)C3)c(C=C(C)C(=O)O)c2)cc1 (stereo not given),116
19,OC[C@@H](O)COc1ccc(OCc2ccccc2)cc1,125 to 126
20,O=C(c1ccccc1I)N1CCOCC1,86 to 87
21,Cn1nc2c(-c3ccc(Cl)cc3Cl)cccc2c1CCc1ncn[nH]1,92 to 116

row,Structure (SMILES),melting point [°C]
1,O=C(O)CCCCCCCCNS(=O)(=O)c1ccccc1,82 to 84
2,CC(O)C#CC1(O)C(C)C=CCC1(C)C (stereo not given),101 to 104
3,CCCCC(F)c1nc[nH]c(=O)c1Cl (stereo not given),157 to 160
4,O=c1[nH]c2cc(F)ccc2c(=O)n1-c1ccccc1,304 to 306
5,O=C1C2CCCCN2C(=O)N1c1ccccc1 (stereo not given),186 to 187
6,COc1ccc(CC2(C)CN(C(c3ccccc3)c3ccccc3)CCN2C)cc1OC (stereo not given),102
7,CCOCCn1c(CN2CCN(CC#N)CC2)nc2cccnc21,80.7
8,OC(CCN1CCC(c2ccc(F)cc2)CC1)c1ccc(Cc2ccc(Cl)cc2)cc1 (stereo not given),94 to 95
9,CCCCO/N=C(\C(=O)On1nnc2ccccc21)c1csc(NC(c2ccccc2)(c2ccccc2)c2ccccc2)n1,100 to 102
10,COc1cccc(-c2cn(N=Cc3ccccc3)c(N)n2)c1,170 to 171
11,Cc1cc(C)c2c(c1O)CCC2=O,152 to 154
12,O=C1C=CC=C2CN=CC=C12,232 to 234
13,Cc1ccc(OCc2ccc(OCc3nc(-c4ccccc4)oc3C)cc2)c(CC(=O)O)c1,115 to 116
14,Cc1cc(C)c2c(c1)OC(=O)C2c1ccc(C(C)C)cc1 (stereo not given),76 to 77
15,CNc1nc(C(C)c2ccc(-c3ccccc3)c(F)c2)co1 (stereo not given),134 to 135
16,CCCCCCCCCCCCCCCCCCS(=O)c1cc2ccccc2c(N)c1O (stereo not given),95 to 97
17,CC(C(=O)O)c1cccs1 (stereo not given),75 to 75.5
18,C=C(C(=O)O)c1ccc(OC)c(OC)c1,128
19,CCC(CC)C(NS(=O)(=O)c1ccc(Br)s1)c1ccnn1-c1ccccc1 (stereo not given),120 to 121
20,CN(C(=O)c1ccc2cnccc2n1)C1CCCCC1,62 to 63
21,CCCCc1nc2c(N)nc3ccccc3c2n1CCCCCCCCNS(=O)(=O)c1ccccc1,143 to 144

row,Structure (SMILES),melting point [°C]
1,COc1ccc(-c2cc(=O)c3cc(OCCCCCN4CCC(O)CC4)ccc3o2)cc1,138 to 139
2,CC(C)c1nc(CO)c(CO)[nH]1,200 to 201
3,O=C(c1cc2cc(OCc3ccccc3)ccc2[nH]1)C12CC3CC(CC(C3)C1)C2,189 to 191
4,O=c1nc(-c2ccccc2F)c2c3c(sc2[nH]1)CCCC3,274 to 277
5,CC(CN(C)c1ccccc1)NCC(O)c1ccc(O)c(C(N)=O)c1 (stereo not given),143 to 145
6,COc1cccc2c(Nc3cccc(N(C)C)c3)c(C#N)cnc12,222 to 225
7,Cc1nc2n(c(=O)c1CCN1CCC(C(O)c3ccc(F)cc3)CC1)CCS2 (stereo not given),204
8,N#Cc1cc(-c2cccnc2)nn1-c1ccc(NC(=O)c2ccc(OCCCC3OCCO3)nc2)cc1,197 to 198
9,CC(C)C1(C)N=C(c2nc3ccsc3cc2C(=O)O)NC1=O (stereo not given),242 to 244
10,Cc1c(Br)c(Br)c(C)c(Br)c1Br,247 to 249
11,CCCCC[C@H]1CC[C@H](c2ccc(C#Cc3ccc(OC(F)F)cc3)cc2)CC1,62
12,CC1(C)Nc2cc(Br)ccc2-n2cccc21,89 to 91
13,CC(=CC(NC=O)C(=O)OCc1ccccc1)CP(=O)(OC(C)C)OC(C)C (stereo not given),50 to 58
14,COc1cc(Nc2nc3cccc(-c4cccc(Cl)c4)c3o2)cc(OC)c1OC,199 to 201
15,CC(C)(C(=O)O)c1ccc(OCCCc2cc3c(cc2O)CC(CCc2ccccc2)O3)cc1 (stereo not given),134 to 136
16,CCCCC1CCC(c2ccc(Cc3ccc(N)cc3)cc2)(c2ccc(Cc3ccc(N)cc3)cc2)CC1,58.5 to 60.1
17,CNC(=O)C(=NOC)c1ccccc1COc1ccc(Sc2ccccc2)cn1,95 to 96
18,O=C1c2ccccc2-c2c1c1ccccc1c(=O)n2CCNCCO,184
19,Cc1nc(N)c2nc(C)n(CCCCCSc3ccccc3)c2c1C,181 to 183
20,CC(C)OC(=O)c1ccc(OCc2ccccc2)cc1,62 to 63

# Second part, the compound after the results:
row,melting point [°C],Structure (SMILES)
1,144 to 145,CCc1nc(C(=O)O)c(Cl)c(N)c1F
2,207 to 208,O=C(O)c1c[nH]c(=S)n1C1CCc2cc(F)cc(F)c2C1 (stereo not given)
3,115 to 116,CCOC(=O)CCNC(=O)Nc1ccc([N+](=O)[O-])cc1O
4,274 to 275,O=c1c(-c2cccc(C(F)(F)F)c2)coc2cc(O)c(O)cc12
5,127 to 130,CCn1c(C)nc2cc(C(F)(F)F)c(OC)cc21
6,205 to 209,CC1(COc2ccc([N+](=O)[O-])cc2)CC(=O)c2cc(O)c(C(C)(C)C)cc2O1 (stereo not given)
7,189 to 191,Cc1noc(NS(=O)(=O)c2ccsc2C(=O)Oc2ccc3c(c2)OCO3)c1Cl
8,72,Cc1cc(Cl)nc(S(C)(=O)=O)n1
9,95 to 100,Nc1ncccc1OCc1ccccc1Cl
10,165 to 167,CS(=O)(=O)c1ccc(-c2sc(-c3ccc(F)c(Cl)c3)nc2-c2ccc(F)cc2)cc1
11,80,COC(=O)c1cnc(COC(=O)C(C)(C)Oc2ccc(Cl)cc2)s1
12,186 to 188,CN(C(=O)Nc1ccc(Cl)cc1)n1cnc2ccccc2c1=O
13,110 to 113,CC(=O)N1CCc2ccc(C(=O)c3ccccc3)cc2C1
14,> 270,O=C(O)c1cc2cc3[nH]c(=O)[nH]c3cc2[nH]1
15,62 to 63,CCCc1cc2cc(OCC(=O)OCC)c(Cl)c(Cl)c2s1
16,57 to 59,CCOC(=O)C1=Cc2cccc(C(F)(F)F)c2OCC1
17,158,N#Cc1cc(F)c(NN)cc1F
18,180,O=C(O)C1CCc2cc([N+](=O)[O-])ccc2O1 (stereo not given)
19,45 to 46,CCOc1ccc(OCc2ccccc2)c(C(=O)OC)n1
20,123 to 125,COc1ccc(CCNC(=O)N(OC(C)=O)C(C)(C)C)cc1OC
21,174 to 175,CC(C)(n1cncn1)C(O)(Cc1nc[nH]n1)c1ccc(C(F)(F)F)cc1F (stereo not given)
22,127 to 128,CCCCOC(=O)C(NC(=O)OC(C)(C)C)c1c[nH]c2ccccc12 (stereo not given)

row,melting point [°C],Structure (SMILES)
1,195 to 197,CC(C)(C)c1nc2cc(N3CCN(S(C)(=O)=O)CC3)c([N+](=O)[O-])cc2s1
2,58 to 62,CCOC(=O)C(CCC#N)(C(=O)OCC)c1ncc(Br)cc1[N+](=O)[O-]
3,51 to 53,CC(C)(C)OC(=O)NCc1ccccc1Br
4,277 to 280,CC(C)N1CCC(CNc2ccccc2C(=O)Nc2ccc(Cl)cn2)CC1
5,194 to 196,COc1ccc2c(c1)c(CC(=O)NN)c(C)n2Cc1c(Cl)cccc1Cl
6,95 to 98,O=[N+]([O-])c1ccc2[nH]cc(CCCI)c2c1
7,127 to 129,O=C(NCc1ccon1)c1ccnc(N2CCN(Cc3ccc(F)cc3)C2=O)c1
8,85 to 88,Cc1cc(SCc2cccc3[nH]c(-c4ccc(C(F)(F)F)cc4)cc23)ccc1OCC(=O)O
9,186,CC(C)(C)NCC(O)COc1ccc(-c2nc(C(F)(F)F)c[nH]2)cc1 (stereo not given)
10,> 250,Cc1cnc2c(NC(=O)c3c(Cl)cccc3Cl)cccc2c1N1CCNC1=O
11,88 to 89,COC(=O)c1ccc(-c2cccc(CO)c2)cc1
12,86 to 88,CCOC(=O)C(C(=O)OC(C)(C)C)c1c([N+](=O)[O-])cc([N+](=O)[O-])c2ccccc12 (stereo not given)
13,> 300,CS(=O)(=O)Cc1cnc2ccsc2c1O
14,> 270,O=C(O)C(=O)Nc1cccc([N+](=O)[O-])c1
15,215 to 219,Cn1cc(C(=O)NCc2ccc(Cl)cc2)c(=O)c2cc(CN3CCSCC3)ccc21
16,109 to 115,COc1cc([N+](=O)[O-])c2ncccc2c1OCC(F)(F)F
17,150 to 151,N#CCCNC(=O)c1cccc(-c2ccc3c(c2)C(Oc2ccc(Cl)cc2Cl)CCC3)c1 (stereo not given)
18,120,CCC(=O)Nc1ccccc1C(=O)O
19,130 to 132,COC(C(=O)Nc1cc(Cl)cc(Cl)c1)C(=O)OC(C)(C)C (stereo not given)
20,72 to 74,O=C1N(CC2CCCO2)c2ccccc2C12COc1cc(O)ccc12 (stereo not given)
21,207,O=[N+]([O-])c1cc(C(F)(F)F)c(Cl)cc1NCP(=O)(O)O
